Literature values in patent US8410049B2, “Methods and kits for preventing hypoglycemia” (Cebix, priority 2009, dated 2013).

Conditions: in vivo; cited from earlier work

Row | Substance | Peak time of effect | Duration of activity | Onset of action [min]
1 | Aspart | around 30 minutes | – | –
2 | Glargine insulin | no peak effect | 24 h | –
3 | Glulisine | around 30 minutes | – | –
4 | Lantus | – | up to 24 hours | –
5 | Lispro | around 30 minutes | – | –
6 | Regular insulin | – | – | 30 to 60
